# Reference: patent US9580426B2, “Compounds that expand hematopoietic stem cells” (Novartis AG, priority 2008, dated 2017)
# Tested on: mPB CD34+ cells and CB CD34+ cells
# Assay: Colony-Forming Units in Culture (CFU-C) Assay
# Format: cell-based, human
# Description: Colony-Forming Units in Culture (CFU-C) Assay: Mononuclear cells at 1000 per mL for cord blood 5 week and mPB 3 week culture and 100 cells per mL for C δ 3 week and mPB 1 week culture were added to MethoCult SF H4436, serum-free methylcellulose medium containing methylcellulose in Iscove's MDM, bovine serum albumin, 2-mercaptoethanol, L-glutamine, human transferring (iron saturated), recombinant human insulin, and recombinant human cytokines: stem cell factor, GM-CSF, IL-3, IL-6, G-CSF, and erythropoietin (StemCell Technologies). The MethoCult is supplemented with the following human recombinant cytokines: thrombopoietin, and Flt-3 ligand (R&D Systems), each at a final concentration of 50 ng/mL. After stirring, the mixture is divided into three 35-mm dishes. The dishes are incubated for 14 days at 37° C. in a humidified atmosphere of 5% CO2 in air. At the end of the incubation period, myeloid and erythroid colonies are counted under an inverted microscope at 40× magnification. CFU-C content of the expansion culture is calculated as follows: number of scored colonies per three dishes×total mononuclear cell number/input cell number. Up to one week, total mononuclear cells are determined by multiplying the number of cells per milliliter by the culture volume. From week 1 and on, the number of passages is also taken into account. Cultures treated with 4-(2-(2-(benzo[b]thiophen-3-yl)-9-isopropyl-9H-purin-6-ylamino)ethyl)phenol (compound 1, table 1; example 1) at a concentration of 1 micromolar, generated a greater than 10-fold increase in the number of colony forming cells after 21 days of culture of mPB CD34+ cells compared to vehicle. […] Cells treated with a 4-(2-(2-(benzo[b]thiophen-3-yl)-9-isopropyl-9H-purin-6-ylamino)ethyl)phenol (compound 1, table 1; example 1) generated more mixed colonies associated with a >10-fold increase in erythrocyte colonies, a >10-fold increase in granulocyte/macrophage colonies, and a >10-fold increase in macrophage colonies.
smiles,measurement,setting,value
"CC(C)n1cnc2c(NCCc3ccc(O)cc3)nc(-c3csc4ccccc34)nc21 [Example 1, 4-(2-(2-(benzo[b]thiophen-3-yl)-9-isopropyl-9H-purin-6-ylamino)ethyl)phenol]",increase in colony forming units compared to control,"1 micromolar, 1x10^3 CB CD34+ cells, 5 week culture",greater than 10 fold
same,increase in the number of colony forming cells compared to vehicle,"1 micromolar, after 21 days of culture of mPB CD34+ cells",greater than 10 fold
same,mixed granulocyte/erythrocyte/monocyte/macrophage colonies,not observed in colonies derived from untreated cultures,give rise mixed granulocyte/erythrocyte/monocyte/macrophage colonies
same,increase in erythrocyte colonies,treated cells vs untreated,greater than 10 fold
same,increase in granulocyte/macrophage colonies,treated cells vs untreated,greater than 10 fold
same,increase in macrophage colonies,treated cells vs untreated,greater than 10 fold
